Among the data in patent publication US8431565B2 (priority 2007, dated 2013) are EC50 values, retold here.

Broadly, the EC50 is the concentration needed to bring the measured effect to its halfway point. Lower therefore signals greater potency.

For the assay, the target named is T1, rat CB2 receptor (rCB2) (Rattus norvegicus, UniProt Q9QZN9).
T1 sequence (Q9QZN9 1-360): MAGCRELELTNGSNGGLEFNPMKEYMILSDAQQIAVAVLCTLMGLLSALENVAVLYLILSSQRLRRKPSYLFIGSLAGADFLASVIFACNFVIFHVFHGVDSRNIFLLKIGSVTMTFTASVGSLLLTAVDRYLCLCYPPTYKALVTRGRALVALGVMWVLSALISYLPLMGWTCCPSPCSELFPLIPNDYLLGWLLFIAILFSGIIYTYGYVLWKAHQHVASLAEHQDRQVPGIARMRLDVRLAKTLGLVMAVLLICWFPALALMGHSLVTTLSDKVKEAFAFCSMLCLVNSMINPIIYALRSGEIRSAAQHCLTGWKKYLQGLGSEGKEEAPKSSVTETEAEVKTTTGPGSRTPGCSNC
As for `CC(C)CN1CCn2c(-c3ccccc3)nc(C(=O)NCC(C)(C)C)c2C1` [Compound 58, 7-isobutyl-N-neopentyl-3-phenyl-5,6,7,8-tetrahydroimidazo[1,5-a]pyrazine-1-carboxamide], the EC50 fell in the range of 10 to 100 nM.

As for `CC12CCC(C1)C(C)(C)C2NC(=O)c1nc(-c2ccccc2)n2c1CN(CCO)CC2` (stereo not drawn) [Compound 143, 7-(2-hydroxyethyl)-3-phenyl-N-(1,3,3-trimethylbicyclo[2.2.1]heptan-2-yl)-5,6,7,8-tetrahydroimidazo[1,5-a]pyrazine-1-carboxamide], the EC50 lay within 10 to 100 nM.

Regarding `CCN1CCn2c(-c3ccccc3)nc(C(=O)N[C@H](C)C3CCCCC3)c2C1` [Compound 164, (R)-N-(1-cyclohexylethyl)-7-ethyl-3-phenyl-5,6,7,8-tetrahydroimidazo[1,5-a]pyrazine-1-carboxamide], the 50% effective concentration (EC50) is 10 to 100 nM.

The compound `CNC(=O)[C@@H](NC(=O)c1nc(-c2ccccc2)n2c1CN(CC1CC1)CC2)C(C)(C)C` [Compound 56, (S)-7-(cyclopropylmethyl)-N-(3,3-dimethyl-1-(methylamino)-1-oxobutan-2-yl)-3-phenyl-5,6,7,8-tetrahydroimidazo[1,5-a]pyrazine-1-carboxamide] registered an EC50 of 10 to 100 nM.

In turn, `CCCN1CCn2c(-c3ccccc3)nc(C(=O)Nc3ccccc3)c2C1` [Compound 154, N,3-diphenyl-7-propyl-5,6,7,8-tetrahydroimidazo[1,5-a]pyrazine-1-carboxamide] registered a concentration for a half-maximal effect (EC50) of 10 to 100 nM.

As to `CCN1CCn2c(-c3ccc(Cl)cc3)nc(C(=O)NCCC(C)C)c2C1` [Compound 158, 3-(4-chlorophenyl)-7-ethyl-N-isopentyl-5,6,7,8-tetrahydroimidazo[1,5-a]pyrazine-1-carboxamide], the concentration giving a half-maximal response (EC50) was in the range of 10 to 100 nM.

Compound `CC(C)(C)OC(=O)N1CCn2c(-c3ccc(Cl)cc3)nc(C(=O)N[C@H](CO)C(C)(C)C)c2C1` (stereo in doubt) [Compound 34, tert-butyl 3-(4-chlorophenyl)-1-(1-hydroxy-3,3-dimethylbutan-2-ylcarbamoyl)-5,6-dihydroimidazo[1,5-a]pyrazine-7(8H)-carboxylate] displayed an EC50 of 10 to 100 nM.

On to `CNC(=O)[C@@H](NC(=O)c1nc(-c2ccccc2)n2c1CN(S(=O)(=O)c1ccc(C(F)(F)F)cc1)CC2)C(C)(C)C` [Compound 107, (S)-N-(3,3-dimethyl-1-(methylamino)-1-oxobutan-2-yl)-3-phenyl-7-(4-(trifluoromethyl)phenylsulfonyl)-5,6,7,8-tetrahydroimidazo[1,5-a]pyrazine-1-carboxamide], for which the EC50 lay within 10 to 100 nM.

Take `CNC(=O)[C@@H](NC(=O)c1nc(-c2ccsc2)n2c1CN(S(=O)(=O)c1ccc(F)cc1)CC2)C(C)(C)C` [Compound 109, (S)-N-(3,3-dimethyl-1-(methylamino)-1-oxobutan-2-yl)-7-(4-fluorophenylsulfonyl)-3-(thiophen-3-yl)-5,6,7,8-tetrahydroimidazo[1,5-a]pyrazine-1-carboxamide]: the EC50 lay in the range of 10 to 100 nM.

As to `CC(C)CN1CCn2c(-c3ccccc3)nc(C(=O)NC3CCCCC3)c2C1` [Compound 165, N-cyclohexyl-7-isobutyl-3-phenyl-5,6,7,8-tetrahydroimidazo[1,5-a]pyrazine-1-carboxamide], the EC50 is 0.1 to 10 nM.

Consider `COC(=O)[C@@H](NC(=O)c1nc(-c2ccc(C)cc2F)n2c1CN(CC1CC1)CCC2)C(C)(C)C` [Compound 470, (S)-methyl 2-(8-(cyclopropylmethyl)-3-(2-fluoro-4-methylphenyl)-6,7,8,9-tetrahydro-5H-imidazo[1,5-a][1,4]diazepine-1-carboxamido)-3,3-dimethylbutanoate], for which the concentration for a half-maximal effect (EC50) was in the range of 10 to 100 nM.

Compound `CNC(=O)[C@@H](NC(=O)c1nc(-c2ccccc2)n2c1CN(S(=O)(=O)c1ccc(C#N)cc1)CC2)C(C)(C)C` [Compound 108, (S)-7-(4-cyanophenylsulfonyl)-N-(3,3-dimethyl-1-(methylamino)-1-oxobutan-2-yl)-3-phenyl-5,6,7,8-tetrahydroimidazo[1,5-a]pyrazine-1-carboxamide] yielded a concentration giving a half-maximal response (EC50) of 10 to 100 nM.
